Data taken from ChEMBL document CHEMBL1122946, “Folate antagonists. 21. Synthesis and antimalarial properties of 2,4-diamino-6-(benzylamino)pyrido[3,2-d]pyrimidines” (1985).

Experiments:
Mus musculus [1] = experiment: Mean survival time against trophozoite induced Plasmodium berghei in mice minus control was evaluated at a dose 40 mg/kg; 11 survived out of 15 animals at 60 days postinjection; assay type: functional, organism-based; parameters: dose 40 mg/kg
Mus musculus [2] = experiment: Mean survival time against trophozoite induced Plasmodium berghei in mice minus control was evaluated at a dose 5 mg/kg.; assay type: functional
Mus musculus [3] = experiment: Mean survival time against trophozoite induced Plasmodium berghei in mice minus control was evaluated at a dose 2.5 mg/kg.; assay type: functional
Mus musculus [4] = experiment: Mean survival time against trophozoite induced Plasmodium berghei in mice minus control was evaluated at a dose 20 mg/kg;3 survived out of 15 animals at 60 days postinjection; assay type: functional, organism-based; parameters: dose 20 mg/kg
Mus musculus [5] = experiment: Mean survival time against trophozoite induced Plasmodium berghei in mice minus control was evaluated at a dose 160 mg/kg; 8 toxic death occurred out of 10 animals on days 2-5 after injection; assay type: functional, organism-based; parameters: dose 160 mg/kg
Mus musculus [6] = experiment: Mean survival time against trophozoite induced Plasmodium berghei in mice minus control was evaluated at a dose 1.25 mg/kg; assay type: functional
Mus musculus [7] = experiment: Mean survival time against trophozoite induced Plasmodium berghei in mice minus control was evaluated at a dose 10 mg/kg; assay type: functional
Mus musculus [8] = experiment: Mean survival time against trophozoite induced Plasmodium berghei in mice minus control was evaluated at a dose 80 mg/kg; 4 toxic death occurred out of 10 animals on days 2-5 after injection.; assay type: functional, organism-based; parameters: dose 80 mg/kg
Mus musculus [9] = experiment: Mean survival time against trophozoite induced Plasmodium berghei in mice minus control was evaluated at a dose 640 mg/kg; 5 toxic death occurred out of 5 animals on days 2-5 after injection; assay type: functional, organism-based; parameters: dose 640 mg/kg
Mus musculus [10] = experiment: Mean survival time against trophozoite induced Plasmodium berghei in mice minus control was evaluated at a dose 320 mg/kg; 8 toxic death occurred out f 10 animals on days 2-5 after injection; assay type: functional, organism-based; parameters: dose 320 mg/kg
Mus musculus [11] = experiment: Mean survival time against trophozoite induced Plasmodium berghei in mice minus control was evaluated at a dose 40 mg/kg; 1 survived occurred on days 2-5 after injection; assay type: functional
Mus musculus [12] = experiment: Mean survival time against trophozoite induced Plasmodium berghei in mice minus control was evaluated at a dose 80 mg/kg; 2 survived occurred on days 2-5 after injection.; assay type: functional
Mus musculus [13] = experiment: Mean survival time against trophozoite induced Plasmodium berghei in mice minus control was evaluated at a dose 640 mg/kg; 5 toxic death occurred on days 2-5 after injection; assay type: functional, organism-based; parameters: dose 640 mg/kg
Mus musculus [14] = experiment: Mean survival time against trophozoite induced Plasmodium berghei in mice minus control was evaluated at a dose 160 mg/kg; 5 survived occurred on days 2-5 after injection; assay type: functional, organism-based; parameters: dose 160 mg/kg
Mus musculus [15] = experiment: Mean survival time against trophozoite induced Plasmodium berghei in mice minus control was evaluated at a dose 320 mg/kg; 2 toxic death and 3 survived occurred on days 2-5 after injection; assay type: functional, organism-based; parameters: dose 320 mg/kg
Mus musculus [16] = experiment: Mean survival time against trophozoite induced Plasmodium berghei in mice minus control was evaluated at a dose 20 mg/kg.; assay type: functional
Mus musculus [17] = experiment: Mean survival time against trophozoite induced Plasmodium berghei in mice minus control was evaluated at a dose 10 mg/kg.; assay type: functional
Mus musculus [18] = experiment: Mean survival time against trophozoite induced Plasmodium berghei in mice minus control was evaluated at a dose 80 mg/kg; 2 survived occurred on days 2-5 after injection; assay type: functional, organism-based; parameters: dose 80 mg/kg
Mus musculus [19] = experiment: Mean survival time against trophozoite induced Plasmodium berghei in mice minus control was evaluated at a dose 640 mg/kg; 15 toxic death occurred out of 15 animals on days 2-5 after injection; assay type: functional, organism-based; parameters: dose 640 mg/kg
Mus musculus [20] = experiment: Mean survival time against trophozoite induced Plasmodium berghei in mice minus control was evaluated at a dose 20 mg/kg; assay type: functional
Mus musculus [21] = experiment: Mean survival time against trophozoite induced Plasmodium berghei in mice minus control was evaluated at a dose 320 mg/kg; 10 toxic death occurred out of 10 animals on days 2-5 after injection; assay type: functional, organism-based; parameters: dose 320 mg/kg
Mus musculus [22] = experiment: Mean survival time against trophozoite induced Plasmodium berghei in mice minus control was evaluated at a dose 160 mg/kg; 14 toxic death occurred out of 20 animals on days 2-5 after injection; assay type: functional, organism-based; parameters: dose 160 mg/kg
Mus musculus [23] = experiment: Mean survival time against trophozoite induced Plasmodium berghei in mice minus control was evaluated at a dose 80 mg/kg; 5 survived out of 5 animals at 60 days postinjection.; assay type: functional, organism-based; parameters: dose 80 mg/kg
Mus musculus [24] = experiment: Mean survival time against trophozoite induced Plasmodium berghei in mice minus control was evaluated at a dose 40 mg/kg; assay type: functional
Mus musculus [25] = experiment: Mean survival time against trophozoite induced Plasmodium berghei in mice minus control was evaluated at a dose 1.25 mg/kg.; assay type: functional
Mus musculus [26] = experiment: Mean survival time against trophozoite induced Plasmodium berghei in mice minus control was evaluated at a dose 640 mg/kg.; assay type: functional
Mus musculus [27] = experiment: Mean survival time against trophozoite induced Plasmodium berghei in mice minus control was evaluated at a dose 160 mg/kg; assay type: functional

CC#N.CC(C)N(Cc1ccc(Cl)cc1)c1ccc2nc(N)nc(N)c2n1
Delta MST (Mus musculus [1]): Survivals 11/15 | Delta MST (Mus musculus [2]): 8.5 days | Delta MST (Mus musculus [3]): 6.5 days | Delta MST (Mus musculus [4]): Survivals 3/15 | Delta MST (Mus musculus [5]): Toxic Deaths 8/10 | Delta MST (Mus musculus [6]): 3.5 days | Delta MST (Mus musculus [7]): 11.5 days | Delta MST (Mus musculus [8]): Toxic Deaths 4/10 | Delta MST (Mus musculus [9]): Toxic Deaths 5/5 | Delta MST (Mus musculus [10]): Toxic Deaths 8/10

CC1(C)N=C(N)N=C(N)N1c1ccc(Cl)cc1.Cl [CHLORCYCLOGUANIL HYDROCHLORIDE]
Delta MST (Mus musculus [11]): 13.4 days | Delta MST (Mus musculus [12]): 21.6 days | Delta MST (Mus musculus [13]): Toxic Deaths 5 | Delta MST (Mus musculus [14]): Survivals 5 | Delta MST (Mus musculus [15]): Survivals 3 Toxic Deaths 2 | Delta MST (Mus musculus [16]): 7.9 days | Delta MST (Mus musculus [17]): 4.9 days | Delta MST (Mus musculus [18]): Survivals 2

CCCN(Cc1ccc(Cl)cc1)c1ccc2nc(N)nc(N)c2n1
Delta MST (Mus musculus [19]): Toxic Deaths 15/15 | Delta MST (Mus musculus [20]): 18 days | Delta MST (Mus musculus [2]): 8.9 days | Delta MST (Mus musculus [3]): 8.1 days | Delta MST (Mus musculus [21]): Toxic Deaths 10/10 | Delta MST (Mus musculus [22]): Toxic Deaths 14/20 | Delta MST (Mus musculus [23]): Survivals 5/5 | Delta MST (Mus musculus [24]): 21.3 days | Delta MST (Mus musculus [25]): 6.9 days | Delta MST (Mus musculus [17]): 10.3 days

CN(Cc1ccc(Cl)cc1)c1ccc2nc(N)nc(N)c2n1
Delta MST (Mus musculus [26]): 1.3 days | Delta MST (Mus musculus [27]): 1.1 days | Delta MST (Mus musculus [24]): 1.1 days
